Earlier results on one compound are cited in patent US20060115424A1, “Combination therapy of oxaliplatin and radioactively doped particles treating cancer” (priority 2003, published 2006).

In this series the test system is cancer. As to conditions: Gray et al (2001) Annals of Oncology 12: 1711-1720.

For `O=c1[nH]c(=O)n([C@H]2C[C@H](O)[C@@H](CO)O2)cc1F` [floxuridine], the response rate is reported as 17.6% and the “time to disease progression” value was 9.7 months.
